The source of these data is patent US8772307B2, “Substituted spiro compounds and their use for producing pain-relief medicaments” (Gruenenthal GmbH, priority 2005, dated 2014).

In test [1] the target is T1, rat-species vanilloid receptor 1 (VR1/TRPV1) (Rattus norvegicus, UniProt O35433).
T1 construct: endogenous in cells; host or cells: primary cells dissociated from rat dorsal root ganglia (DRG)
As to the kind of experiment: Functional testing on vanilloid receptor 1 (VR1/TRPV1): FLIPR Ca2+ inflow assay in rat dorsal root ganglia cells (% activation / % inhibition vs capsaicin). The class given is cell-based. To be noted: for inhibition at 10 µM: inhibition compared to 10 μM CP (capsaicin); for activation at 10 µM: stimulation compared to 10 μM CP (capsaicin). As for the experimental part:
Preference may also be given to substituted spiro compounds according to the invention of general formula I which in a FLIPR assay in a concentration of 10 μM display inhibition of the Ca^2+ ion inflow in dorsal root ganglia of rats of at least 30%, preferably of at least 40%, particularly preferably of at least 50%, most particularly preferably of at least 70%, even more preferably of at least 90%, compared to the maximum achievable inhibition of the Ca^2+ ion inflow with capsaicin in a concentration of 10 μM.
In the FLIPR assay, the Ca^2+ inflow is quantified using a Ca^2+-sensitive dye (type Fluo-4, Molecular Probes Europe BV, Leiden, Netherlands) in a fluorescent imaging plate reader (FLIPR, Molecular Devices, Sunnyvale, USA), as described hereinafter.
I. Functional Testing Carried Out on the Vanilloid Receptor 1 (VR1/TRPV1 Receptor)
The agonistic or antagonistic effect of the substances to be tested can be determined on the rat-species vanilloid receptor 1 (VR1/TRPV1) using the following assay. According to this assay, the Ca^2+ inflow is quantified through the receptor channel using a Ca^2+-sensitive dye (type Fluo-4, Molecular Probes Europe BV, Leiden, Netherlands) in a fluorescent imaging plate reader (FLIPR, Molecular Devices, Sunnyvale, USA).
Complete medium: 50 mL HAMS F12 nutrient mixture (Gibco Invitrogen GmbH, Karlsruhe, Germany) with
10% by volume of FCS (foetal calf serum, Gibco Invitrogen GmbH, Karlsruhe, Germany, […]);
2 mM L-glutamine (Sigma, Munich, Germany);
1% by weight of AA solution (antibiotic/antimyotic solution, PAA, Pasching, Austria)
and 25 ng/ml NGF medium (2.5 S, Gibco Invitrogen GmbH, Karlsruhe, Germany)
Cell culture plate: Poly-D-lysine-coated, black 96 well plates having a clear base (96 well black/clear plate, BD Biosciences, Heidelberg, Germany) were additionally coated with laminin (Gibco Invitrogen GmbH, Karlsruhe, Germany), the laminin being diluted with PBS (Ca—Mg-free PBS, Gibco Invitrogen GmbH, Karlsruhe, Germany) to a concentration of 100 μg/mL. Aliquots having a laminin concentration of 100 μg/mL were removed and stored at −20° C. The aliquots were diluted with PBS in a ratio of 1:10 to 10 μg/mL laminin and in each case 50 μL of the solution were pipetted into a recess in the cell culture plate. The cell culture plates were incubated for at least two hours at 37° C., the excess solution was removed by suction-filtration and the recesses were each washed twice with PBS. The coated cell culture plates were stored with excess PBS which was not removed until just before the feeding of the cells.
Preparation of the Cells:
The vertebral column was removed from decapitated rats and placed immediately into cold HBSS buffer (Hank's buffered saline solution, Gibco Invitrogen GmbH, Karlsruhe, Germany), i.e. buffer located in an ice bath, mixed with 1% by volume (percent by volume) of an AA solution (antibiotic/antimyotic solution, PAA, Pasching, Austria). The vertebral column was cut longitudinally and removed together with fasciae from the vertebral canal. Subsequently, the dorsal root ganglia (DRG) were removed and again stored in cold HBSS buffer mixed with 1% by volume of an AA solution. The DRG, from which all blood remnants and spinal nerves had been removed, were transferred in each case to 500 μL of cold type 2 collagenase (PAA, Pasching, Austria) and incubated for 35 minutes at 37° C. After the addition of 2.5% by volume of trypsin (PAA, Pasching, Austria), incubation was continued for 10 minutes at 37° C. After complete incubation, the enzyme solution was carefully pipetted off and 500 μL of complete medium were added to each of the remaining DRG. The DRG were in each case suspended several times, drawn through cannulae No. 1, No. 12 and No. 16 using a syringe and transferred to a 50 mL Falcon tube which was filled up to 15 mL with complete medium. […]

In the next test the target is T2, vanilloid receptor (VR1) (Homo sapiens, UniProt Q8NER1).
T2 construct: expressed in transfected cells; host or cells: CHO K1 cells (ECACC), stably transfected
T2 sequence (Q8NER1 whole entry): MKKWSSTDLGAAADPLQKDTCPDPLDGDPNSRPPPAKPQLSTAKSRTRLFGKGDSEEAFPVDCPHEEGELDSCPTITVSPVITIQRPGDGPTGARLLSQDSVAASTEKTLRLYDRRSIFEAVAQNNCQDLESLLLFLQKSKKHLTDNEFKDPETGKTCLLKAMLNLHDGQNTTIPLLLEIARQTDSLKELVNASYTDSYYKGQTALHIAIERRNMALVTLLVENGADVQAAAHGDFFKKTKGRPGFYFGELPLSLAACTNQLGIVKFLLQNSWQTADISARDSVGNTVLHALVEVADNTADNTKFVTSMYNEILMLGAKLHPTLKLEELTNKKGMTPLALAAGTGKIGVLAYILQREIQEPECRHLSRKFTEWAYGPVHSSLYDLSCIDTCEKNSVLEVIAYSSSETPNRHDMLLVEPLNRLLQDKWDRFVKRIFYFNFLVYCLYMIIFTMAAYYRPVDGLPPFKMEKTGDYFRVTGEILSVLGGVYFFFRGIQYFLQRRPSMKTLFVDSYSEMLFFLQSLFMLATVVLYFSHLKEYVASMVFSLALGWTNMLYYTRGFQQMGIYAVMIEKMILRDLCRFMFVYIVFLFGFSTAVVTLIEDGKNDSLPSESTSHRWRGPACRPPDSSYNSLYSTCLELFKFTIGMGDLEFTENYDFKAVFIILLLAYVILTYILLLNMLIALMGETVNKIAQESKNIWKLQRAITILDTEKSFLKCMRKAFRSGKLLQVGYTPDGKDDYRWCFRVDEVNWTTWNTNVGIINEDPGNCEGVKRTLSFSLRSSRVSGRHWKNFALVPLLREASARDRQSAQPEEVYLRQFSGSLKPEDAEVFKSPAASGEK
As to the kind of experiment: Functional testing on vanilloid receptor (VR1): FLIPR Ca2+ inflow assay in CHO K1 cells stably transfected with the VR1 gene. In kind it is cell-based. Conditions: for inhibition at 10 µM: CHO-K1, inhibition compared to 10 μM CP (capsaicin); for activation at 10 µM: CHO-K1, stimulation compared to 10 μM CP (capsaicin). An excerpt:
II. Functional Testing Carried Out on the Vanilloid Receptor (VR1)
The agonistic or antagonistic effect of the substances to be tested can also be determined on the vanilloid receptor (VR1) using the following assay. According to this assay, the Ca^2+ inflow is quantified through the channel using a Ca^2+-sensitive dye (type Fluo-4, Molecular Probes Europe BV, Leiden, Netherlands) in a fluorescent imaging plate reader (FLIPR, Molecular Devices, Sunnyvale, USA).
Chinese hamster ovary cells (CHO K1 cells, European Collection of Cell Cultures (ECACC) United Kingdom) were stably transfected with the VR1 gene. For functional testing, these cells were plated out on poly-D-lysine-coated black 96 well plates having a clear base (BD Biosciences, Heidelberg, Germany) at a density of 25,000 cells/well. The cells were incubated overnight at 37° C. and 5% CO2 in a culture medium (Ham's F12 nutrient mixture, 10% by volume of FCS (foetal calf serum), 18 μg/ml L-proline). The next day the cells were incubated with Fluo-4 (Fluo-4 2 μM, 0.01% by volume of Pluronic F127, Molecular Probes in HBSS (Hank's buffered saline solution), Gibco Invitrogen GmbH, Karlsruhe, Germany) for 30 minutes at 37° C. Subsequently, the plates were washed 3 times with HBSS buffer and after further incubation for 15 minutes at room temperature used for Ca^2+ measurement in a FLIPR assay. The Ca^2+-dependent fluorescence was measured before and after the addition of the substances to be tested (λex wavelength=488 nm, λem=540 nm). Quantification was carried out by measuring the highest fluorescence intensity (FC, Fluorescence Counts) over time.
The FLIPR protocol consists of 2 substance additions. First the compounds to be tested (10 μM) were pipetted onto the cells and the Ca^2+ inflow was compared with the control (capsaicin 10 μM) (% activation based on the Ca^2+ signal after the addition of 10 μM capsaicin). After 5 minutes' incubation, 100 nM of capsaicin were administered and the Ca^2+ inflow was also determined.
Desensitising agonists and antagonists led to suppression of the Ca^2+ inflow. The % inhibition was calculated compared to the maximum achievable inhibition with 10 μM of capsaicin.

T1 sequence (O35433 whole entry): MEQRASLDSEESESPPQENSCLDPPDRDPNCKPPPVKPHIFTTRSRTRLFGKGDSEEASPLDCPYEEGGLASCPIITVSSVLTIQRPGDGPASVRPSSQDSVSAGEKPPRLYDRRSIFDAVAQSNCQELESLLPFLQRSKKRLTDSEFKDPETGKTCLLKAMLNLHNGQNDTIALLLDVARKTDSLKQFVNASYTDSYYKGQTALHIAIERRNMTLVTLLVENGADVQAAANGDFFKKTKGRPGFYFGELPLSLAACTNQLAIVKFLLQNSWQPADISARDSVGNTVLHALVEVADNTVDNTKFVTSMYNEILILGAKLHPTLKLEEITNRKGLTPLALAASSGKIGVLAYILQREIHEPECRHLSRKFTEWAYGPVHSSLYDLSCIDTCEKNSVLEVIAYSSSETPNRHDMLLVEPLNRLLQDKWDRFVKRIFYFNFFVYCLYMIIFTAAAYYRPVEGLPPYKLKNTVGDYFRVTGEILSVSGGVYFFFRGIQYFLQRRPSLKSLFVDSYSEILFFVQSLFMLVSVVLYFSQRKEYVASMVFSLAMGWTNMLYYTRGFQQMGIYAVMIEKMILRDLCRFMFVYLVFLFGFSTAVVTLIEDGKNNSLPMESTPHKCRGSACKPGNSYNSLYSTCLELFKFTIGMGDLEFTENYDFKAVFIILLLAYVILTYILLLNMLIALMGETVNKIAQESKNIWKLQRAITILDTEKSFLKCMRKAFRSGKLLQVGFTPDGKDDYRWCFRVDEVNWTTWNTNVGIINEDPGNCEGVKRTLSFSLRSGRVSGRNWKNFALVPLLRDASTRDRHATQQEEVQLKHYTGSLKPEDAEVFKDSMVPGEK

Turning to `CC(C)(C)c1ccc(/C=C/C(=O)N2CCC3(CC2)CC(c2ccccc2)=NO3)c(Br)c1` [Compound 368, (E)-3-(2-bromo-4-tert-butylphenyl)-1-(3-phenyl-1-oxa-2,8-diazaspiro[4.5]dec-2-en-8-yl)prop-2-en-1-one], in test [1], the inhibition at 10 µM worked out at 83% and the activation at 10 µM was 0%. Further, on vanilloid receptor (VR1), the inhibition at 10 µM stood at 66% and the activation at 10 µM came to 0%.
In the case of `COc1cccc(C2=NOC3(CCN(C(=O)Nc4ccc(OC(F)(F)F)cc4)CC3)C2)c1` [Compound 244, 3-(3-methoxyphenyl)-1-oxa-2,8-diazaspiro[4.5]dec-2-ene-8-carboxylic acid-(4-trifluoromethoxyphenyl)amide], in test [1], the inhibition at 10 µM came out at 89.1% and the activation at 10 µM was found to be 9.79%. Also, on vanilloid receptor (VR1), the inhibition at 10 µM was found to be 3.09% and the activation at 10 µM is -0.28%.
Taken in the same sequence, the figures for `O=C(Nc1cccc(C(F)(F)F)c1)N1CCC2(CC1)CC(c1ccccc1)=NO2` [Compound 90, 3-phenyl-1-oxa-2,8-diazaspiro[4.5]dec-2-ene-8-carboxylic acid-(3-trifluoromethylphenyl)amide] were 55.9%, -0.47%, -7.62% and -0.15%.
The corresponding values for `CC(C)(C)c1ccc(NC(=O)N2CCC3(CC2)CC(c2cccc(Cl)c2)=NO3)cc1` [Compound 333, N-(4-tert-butylphenyl)-3-(3-chlorophenyl)-1-oxa-2,8-diazaspiro[4.5]dec-2-ene-8-carboxamide] are 101%, 9%, 29% and 8%.
The corresponding values for `CCCc1ccccc1NC(=O)N1CCC2(CC1)CC(c1ccccc1)=NO2` [Compound 22, 3-phenyl-1-oxa-2,8-diazaspiro[4.5]dec-2-ene-8-carboxylic acid-(2-propylphenyl)amide] are 40.3%, -0.73%, 10.1% and -0.14%.
Take `COc1cccc(C2=NOC3(CCN(C(=O)Nc4ccc(C(F)(F)F)cc4)CC3)C2)c1` [Compound 210, 3-(3-methoxyphenyl)-1-oxa-2,8-diazaspiro[4.5]dec-2-ene-8-carboxylic acid-(4-trifluoromethylphenyl)amide]: in test [1], the inhibition at 10 µM was found to be 98% and the activation at 10 µM was 0.22%. In addition, on vanilloid receptor (VR1), the inhibition at 10 µM was found to be 7.12% and the activation at 10 µM is -0.21%.
With `O=C(Nc1ccccc1)N1CCC2(CC1)CC(c1ccc(Cl)cc1)=NO2` [Compound 3, 3-(4-chlorophenyl)-1-oxa-2,8-diazaspiro[4.5]dec-2-ene-8-carboxylic acid phenylamide], in test [1], the inhibition at 10 µM was found to be 43.8% and the activation at 10 µM is -0.73%. Further, on vanilloid receptor (VR1), the inhibition at 10 µM was found to be 13.4% and the activation at 10 µM was 0.01%.
Turning to `COc1cccc(C2=NOC3(CCN(C(=O)Nc4ccc(Cl)cc4)CC3)C2)c1` [Compound 39, 3-(3-methoxyphenyl)-1-oxa-2,8-diazaspiro[4.5]dec-2-ene-8-carboxylic acid-(4-chlorophenyl)amide], in test [1], the inhibition at 10 µM came out at 74% and the activation at 10 µM was determined as 0.11%. Further, on vanilloid receptor (VR1), the inhibition at 10 µM was 25% and the activation at 10 µM was -0.14%.
Taken in the same sequence, the figures for `COc1cccc(C2=NOC3(CCN(C(=O)Nc4ccc(C)cc4)CC3)C2)c1` [Compound 146, 3-(3-methoxyphenyl)-1-oxa-2,8-diazaspiro[4.5]dec-2-ene-8-carboxylic acid p-tolylamide] were 58%, -0.13%, 9.95% and 0.29%.
Taken in the same sequence, the figures for `COc1cccc(C2=NOC3(CCN(C(=O)C#Cc4ccc(C(F)(F)F)cc4)CC3)C2)c1` [Compound 361, 1-(3-(3-methoxyphenyl)-1-oxa-2,8-diazaspiro[4.5]dec-2-en-8-yl)-3-(4-(trifluoromethyl)phenyl)prop-2-yn-1-one] were 58%, 0%, 12% and 0%.
As for `O=C(/C=C/c1ccc(C(F)(F)F)nc1N1CCCCC1)N1CCC2(CC1)CC(c1cccc(Cl)c1)=NO2` [Compound 356, (E)-1-(3-(3-chlorophenyl)-1-oxa-2,8-diazaspiro[4.5]dec-2-en-8-yl)-3-(2-(piperidin-1-yl)-6-(trifluoromethyl)pyridin-3-yl)prop-2-en-1-one], in test [1], the inhibition at 10 µM stood at 88% and the activation at 10 µM stood at 0%. Also, at vanilloid receptor (VR1), the inhibition at 10 µM stood at 52% and the activation at 10 µM is 0%.
Turning to `COc1cccc(C2=NOC3(CCN(C(=O)NCCc4ccccc4)CC3)C2)c1` [Compound 122, 3-(3-methoxyphenyl)-1-oxa-2,8-diazaspiro[4.5]dec-2-ene-8-carboxylic acid phenethylamide], in test [1], the inhibition at 10 µM stood at 49.2% and the activation at 10 µM was -0.47%. At vanilloid receptor (VR1), the inhibition at 10 µM was -13.1% and the activation at 10 µM is 0.07%.
Consider `CC(C)(C)c1ccc(NC(=O)N2CCC3(CC2)CC(c2ccc(F)cc2)=NO3)cc1` [Compound 349, N-(4-tert-butylphenyl)-3-(4-fluorophenyl)-1-oxa-2,8-diazaspiro[4.5]dec-2-ene-8-carboxamide], for which, in test [1], the inhibition at 10 µM was 100% and the activation at 10 µM worked out at 5%. On vanilloid receptor (VR1), the inhibition at 10 µM was -12% and the activation at 10 µM was 1%.
